# Measurements reported in PubChem BioAssay (NCI).
#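 These data come from cells grown in 96-well plates and exposed to compound for 48 hours at five concentrations. TGI is the concentration that stops growth completely.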
# Key:
# Test in all cases: NCI tumour cell line growth inhibition, 48 h
# UO-31 renal = system: UO-31 renal
# EKVX NSCLC = system: EKVX NSCLC
# HOP-92 NSCLC = system: HOP-92 NSCLC
# ACHN renal = system: ACHN renal
# SK-OV-3 ovarian = system: SK-OV-3 ovarian
# HCC-2998 colon = system: HCC-2998 colon
# A549 NSCLC = system: A549 NSCLC
# SNB-19 CNS = system: SNB-19 CNS
# NCI-H460 lung = system: NCI-H460 lung
# SNB-75 CNS = system: SNB-75 CNS
# U251 CNS = system: U251 CNS
# M14 melanoma = system: M14 melanoma
# NCI/ADR-RES ovarian = system: NCI/ADR-RES ovarian
# HS 578T breast = system: HS 578T breast
# CAKI-1 renal = system: CAKI-1 renal
# NCI-H23 lung = system: NCI-H23 lung
# MCF7 breast = system: MCF7 breast
# MDA-MB-231 breast = system: MDA-MB-231 breast
# SF-295 CNS = system: SF-295 CNS
# LOX IMVI melanoma = system: LOX IMVI melanoma
# IGROV1 ovarian = system: IGROV1 ovarian
# SK-MEL-5 melanoma = system: SK-MEL-5 melanoma
# OVCAR-4 ovarian = system: OVCAR-4 ovarian
# RPMI-8226 leukemia = system: RPMI-8226 leukemia
# PC-3 prostate = system: PC-3 prostate
# CCRF-CEM leukemia = system: CCRF-CEM leukemia
# NCI-H226 lung = system: NCI-H226 lung
# OVCAR-8 ovarian = system: OVCAR-8 ovarian
# SN12C renal = system: SN12C renal
# MDA-N = system: MDA-N
# SF-539 CNS = system: SF-539 CNS
# OVCAR-5 ovarian = system: OVCAR-5 ovarian
# MOLT-4 leukemia = system: MOLT-4 leukemia
# HCT-15 colon = system: HCT-15 colon
# UACC-62 melanoma = system: UACC-62 melanoma
# SR leukemia = system: SR leukemia
# NCI-H522 lung = system: NCI-H522 lung
# HL-60(TB) leukemia = system: HL-60(TB) leukemia
# RXF 393 renal = system: RXF 393 renal
# MALME-3M melanoma = system: MALME-3M melanoma
# MDA-MB-435 = system: MDA-MB-435
# SF-268 CNS = system: SF-268 CNS
# K-562 leukemia = system: K-562 leukemia
# OVCAR-3 ovarian = system: OVCAR-3 ovarian
# COLO 205 colon = system: COLO 205 colon
# BT-549 breast = system: BT-549 breast
# SK-MEL-28 melanoma = system: SK-MEL-28 melanoma
# HT29 colon = system: HT29 colon
# KM12 colon = system: KM12 colon
# SW-620 colon = system: SW-620 colon
# TK-10 renal = system: TK-10 renal
# HOP-62 NSCLC = system: HOP-62 NSCLC
# DU-145 prostate = system: DU-145 prostate
# SK-MEL-2 melanoma = system: SK-MEL-2 melanoma
# HCT-116 colon = system: HCT-116 colon
# A498 renal = system: A498 renal
# T-47D breast = system: T-47D breast
# UACC-257 melanoma = system: UACC-257 melanoma
# 786-0 renal = system: 786-0 renal
# M19-MEL melanoma = system: M19-MEL melanoma
# DMS 114 small cell lung = system: DMS 114 small cell lung
# DMS 273 small cell lung = system: DMS 273 small cell lung
# SNB-78 CNS = system: SNB-78 CNS
# XF 498 CNS = system: XF 498 CNS
# LXFL 529 NSCLC = system: LXFL 529 NSCLC
# KM20L2 colon = system: KM20L2 colon
# DLD-1 colon = system: DLD-1 colon
smiles,measurement,setting,value
CC(C)(C)NCCC(O)c1cc(C(F)(F)F)nc2c(C(F)(F)F)cccc12 (stereo not drawn),TGI,UO-31 renal,1.34 µM
same,TGI,EKVX NSCLC,27.2 µM
same,TGI,HOP-92 NSCLC,26.2 µM
same,TGI,ACHN renal,21.1 µM
same,TGI,SK-OV-3 ovarian,30.3 µM
same,TGI,HCC-2998 colon,8.73 µM
same,TGI,A549 NSCLC,13.5 µM
same,TGI,SNB-19 CNS,27.3 µM
same,TGI,NCI-H460 lung,16.8 µM
same,TGI,SNB-75 CNS,26.5 µM
same,TGI,U251 CNS,20.2 µM
same,TGI,M14 melanoma,19.4 µM
same,TGI,NCI/ADR-RES ovarian,15.2 µM
same,TGI,HS 578T breast,34.4 µM
same,TGI,CAKI-1 renal,9.97 µM
same,TGI,NCI-H23 lung,9.74 µM
same,TGI,MCF7 breast,27.6 µM
same,TGI,MDA-MB-231 breast,22.8 µM
same,TGI,SF-295 CNS,22.6 µM
same,TGI,LOX IMVI melanoma,5.31 µM
same,TGI,IGROV1 ovarian,23.8 µM
same,TGI,SK-MEL-5 melanoma,25.5 µM
same,TGI,OVCAR-4 ovarian,27.1 µM
same,TGI,RPMI-8226 leukemia,17.1 µM
same,TGI,PC-3 prostate,20.6 µM
same,TGI,CCRF-CEM leukemia,30.5 µM
same,TGI,NCI-H226 lung,33.4 µM
same,TGI,OVCAR-8 ovarian,17.8 µM
same,TGI,SN12C renal,15.5 µM
same,TGI,MDA-N,24 µM
same,TGI,SF-539 CNS,31 µM
same,TGI,OVCAR-5 ovarian,29.3 µM
same,TGI,MOLT-4 leukemia,18.6 µM
same,TGI,HCT-15 colon,21 µM
same,TGI,UACC-62 melanoma,25.3 µM
same,TGI,SR leukemia,13.5 µM
same,TGI,NCI-H522 lung,25.1 µM
same,TGI,HL-60(TB) leukemia,27.5 µM
same,TGI,RXF 393 renal,19.2 µM
same,TGI,MALME-3M melanoma,27.2 µM
same,TGI,MDA-MB-435,27.6 µM
same,TGI,SF-268 CNS,24.2 µM
same,TGI,K-562 leukemia,19.9 µM
same,TGI,OVCAR-3 ovarian,20.4 µM
same,TGI,COLO 205 colon,25.5 µM
same,TGI,BT-549 breast,23.2 µM
same,TGI,SK-MEL-28 melanoma,30.7 µM
same,TGI,HT29 colon,20.1 µM
same,TGI,KM12 colon,7.58 µM
same,TGI,SW-620 colon,> 52.6 µM
same,TGI,TK-10 renal,24.8 µM
same,TGI,HOP-62 NSCLC,14.5 µM
same,TGI,DU-145 prostate,6.17 µM
same,TGI,SK-MEL-2 melanoma,24.6 µM
same,TGI,HCT-116 colon,17.1 µM
same,TGI,A498 renal,28.3 µM
same,TGI,T-47D breast,30.9 µM
same,TGI,UACC-257 melanoma,26.4 µM
same,TGI,786-0 renal,19.6 µM
CN(Cc1nc2c(N)nc(N)nc2nc1N)c1ccc(C(=O)NC(CCC(=O)O)C(=O)O)cc1 (stereo not drawn),TGI,UO-31 renal,> 100 µM
same,TGI,EKVX NSCLC,> 100 µM
same,TGI,HOP-92 NSCLC,> 100 µM
same,TGI,ACHN renal,> 100 µM
same,TGI,SK-OV-3 ovarian,> 100 µM
same,TGI,HCC-2998 colon,> 100 µM
same,TGI,A549 NSCLC,> 100 µM
same,TGI,SNB-19 CNS,> 100 µM
same,TGI,NCI-H460 lung,> 100 µM
same,TGI,SNB-75 CNS,> 100 µM
same,TGI,U251 CNS,> 100 µM
same,TGI,M14 melanoma,> 100 µM
same,TGI,NCI/ADR-RES ovarian,> 100 µM
same,TGI,HS 578T breast,> 100 µM
same,TGI,CAKI-1 renal,> 88 µM
same,TGI,NCI-H23 lung,> 100 µM
same,TGI,MCF7 breast,> 100 µM
same,TGI,MDA-MB-231 breast,> 100 µM
same,TGI,SF-295 CNS,> 100 µM
same,TGI,LOX IMVI melanoma,> 100 µM
same,TGI,IGROV1 ovarian,> 100 µM
same,TGI,SK-MEL-5 melanoma,> 100 µM
same,TGI,OVCAR-4 ovarian,> 100 µM
same,TGI,RPMI-8226 leukemia,> 100 µM
same,TGI,PC-3 prostate,> 100 µM
same,TGI,CCRF-CEM leukemia,> 100 µM
same,TGI,NCI-H226 lung,> 100 µM
same,TGI,OVCAR-8 ovarian,> 100 µM
same,TGI,SN12C renal,> 100 µM
same,TGI,MDA-N,> 100 µM
same,TGI,SF-539 CNS,> 100 µM
same,TGI,OVCAR-5 ovarian,> 100 µM
same,TGI,MOLT-4 leukemia,> 100 µM
same,TGI,HCT-15 colon,> 100 µM
same,TGI,UACC-62 melanoma,> 100 µM
same,TGI,SR leukemia,> 100 µM
same,TGI,NCI-H522 lung,> 100 µM
same,TGI,HL-60(TB) leukemia,> 100 µM
same,TGI,RXF 393 renal,> 100 µM
same,TGI,MALME-3M melanoma,> 100 µM
same,TGI,MDA-MB-435,> 100 µM
same,TGI,SF-268 CNS,> 100 µM
same,TGI,K-562 leukemia,> 100 µM
same,TGI,OVCAR-3 ovarian,> 100 µM
same,TGI,COLO 205 colon,> 100 µM
same,TGI,BT-549 breast,> 100 µM
same,TGI,SK-MEL-28 melanoma,> 100 µM
same,TGI,HT29 colon,> 100 µM
same,TGI,KM12 colon,> 100 µM
same,TGI,SW-620 colon,> 100 µM
same,TGI,TK-10 renal,> 100 µM
same,TGI,HOP-62 NSCLC,> 100 µM
same,TGI,DU-145 prostate,> 100 µM
same,TGI,SK-MEL-2 melanoma,> 100 µM
same,TGI,HCT-116 colon,> 100 µM
same,TGI,A498 renal,> 100 µM
same,TGI,T-47D breast,> 100 µM
same,TGI,UACC-257 melanoma,> 100 µM
same,TGI,786-0 renal,> 100 µM
CCN(CC)c1ccc(C(=C2C=CC(=[N+](CC)CC)C=C2)c2ccccc2)cc1,TGI,UO-31 renal,0.185 µM
same,TGI,EKVX NSCLC,0.581 µM
same,TGI,HOP-92 NSCLC,0.0971 µM
same,TGI,ACHN renal,0.145 µM
same,TGI,M19-MEL melanoma,0.158 µM
same,TGI,SK-OV-3 ovarian,0.0854 µM
same,TGI,HCC-2998 colon,0.135 µM
same,TGI,SNB-19 CNS,0.179 µM
same,TGI,SNB-75 CNS,1.25 µM
same,TGI,DMS 114 small cell lung,0.208 µM
same,TGI,U251 CNS,0.112 µM
same,TGI,M14 melanoma,0.641 µM
same,TGI,DMS 273 small cell lung,0.134 µM
same,TGI,CAKI-1 renal,0.504 µM
same,TGI,NCI-H23 lung,0.0929 µM
same,TGI,SNB-78 CNS,0.237 µM
same,TGI,SF-295 CNS,0.0664 µM
same,TGI,LOX IMVI melanoma,0.105 µM
same,TGI,IGROV1 ovarian,0.247 µM
same,TGI,SK-MEL-5 melanoma,0.041 µM
same,TGI,OVCAR-4 ovarian,0.488 µM
same,TGI,RPMI-8226 leukemia,0.0683 µM
same,TGI,CCRF-CEM leukemia,0.0401 µM
same,TGI,NCI-H226 lung,0.0683 µM
same,TGI,SN12C renal,0.0878 µM
same,TGI,SF-539 CNS,0.269 µM
same,TGI,OVCAR-5 ovarian,0.342 µM
same,TGI,XF 498 CNS,0.0391 µM
same,TGI,MOLT-4 leukemia,0.0383 µM
same,TGI,HCT-15 colon,0.587 µM
same,TGI,UACC-62 melanoma,0.231 µM
same,TGI,SR leukemia,0.0791 µM
same,TGI,LXFL 529 NSCLC,0.115 µM
same,TGI,NCI-H522 lung,0.143 µM
same,TGI,HL-60(TB) leukemia,0.0318 µM
same,TGI,RXF 393 renal,0.0989 µM
same,TGI,MALME-3M melanoma,0.0902 µM
same,TGI,SF-268 CNS,0.195 µM
same,TGI,K-562 leukemia,0.0968 µM
same,TGI,KM20L2 colon,0.117 µM
same,TGI,DLD-1 colon,0.193 µM
same,TGI,COLO 205 colon,0.136 µM
same,TGI,SK-MEL-28 melanoma,0.351 µM
same,TGI,KM12 colon,0.124 µM
same,TGI,SW-620 colon,0.138 µM
same,TGI,HOP-62 NSCLC,0.491 µM
same,TGI,SK-MEL-2 melanoma,0.0889 µM
same,TGI,HCT-116 colon,0.127 µM
same,TGI,UACC-257 melanoma,0.18 µM
same,TGI,786-0 renal,0.151 µM
